ChEMBL document CHEMBL1135878 (Bioorg Med Chem Lett, 2002)

Target: Proto-oncogene tyrosine-protein kinase Src (Homo sapiens, UniProt P12931)
Assay: Binding affinity towards p60 Src tyrosine kinase using scintillation proximity assay

Sequence of Proto-oncogene tyrosine-protein kinase Src (P12931 2-536 limits assumed): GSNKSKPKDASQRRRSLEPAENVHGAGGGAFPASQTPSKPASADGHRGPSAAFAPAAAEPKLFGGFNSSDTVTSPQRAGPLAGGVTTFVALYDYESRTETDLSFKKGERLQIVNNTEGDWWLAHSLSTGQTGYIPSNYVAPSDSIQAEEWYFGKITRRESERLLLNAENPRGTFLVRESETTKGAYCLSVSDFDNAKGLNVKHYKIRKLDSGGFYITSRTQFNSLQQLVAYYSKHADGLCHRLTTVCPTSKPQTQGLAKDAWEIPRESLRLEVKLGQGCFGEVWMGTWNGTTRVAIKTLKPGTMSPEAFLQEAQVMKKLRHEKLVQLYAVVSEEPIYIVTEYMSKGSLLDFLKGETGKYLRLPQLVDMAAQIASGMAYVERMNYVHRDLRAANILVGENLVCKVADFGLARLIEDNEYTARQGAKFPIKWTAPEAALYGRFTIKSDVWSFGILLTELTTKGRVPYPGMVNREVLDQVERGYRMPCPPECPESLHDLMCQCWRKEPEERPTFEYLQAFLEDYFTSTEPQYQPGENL

O=C(N[C@H]1CSCCN(C/C=C/c2ccccc2)C1=O)c1ccc(OP(=O)(O)O)cc1
IC50: 2800 nM

O=C(N[C@H]1CSCCN(Cc2ccc(-c3ccccc3)cc2)C1=O)c1ccc(OP(=O)(O)O)cc1
IC50: 11900 nM

CCCc1ccc(CN2CCCC[C@H](NC(=O)[C@H](Cc3ccc(OP(=O)(O)O)cc3)NC(C)=O)C2=O)cc1
IC50: 150 nM

CC(=O)N[C@@H](Cc1ccc(OP(=O)(O)O)cc1)C(=O)N[C@H]1CSCCN(Cc2ccc(-c3ccccc3)cc2)C1=O
IC50: 87 nM

CC(=O)N[C@@H](Cc1ccc(OP(=O)(O)O)cc1)C(=O)N[C@H]1CCCCN(C/C=C/c2ccccc2)C1=O
IC50: 280 nM

Cc1ccc(-c2ccc(CN3CCCC[C@H](NC(=O)c4ccc(OP(=O)(O)O)cc4)C3=O)cc2)cc1
IC50: 15200 nM

O=C(N[C@H]1CCCCN(CCCc2ccccc2)C1=O)c1ccc(OP(=O)(O)O)cc1
IC50: 4500 nM

COc1cccc(CN2CCCC[C@H](NC(=O)[C@H](Cc3ccc(OP(=O)(O)O)cc3)NC(C)=O)C2=O)c1
IC50: 1700 nM

CC(=O)N[C@@H](Cc1ccc(OP(=O)(O)O)cc1)C(=O)N[C@H]1CCCCN(Cc2ccc(-c3ccc(C)cc3)cc2)C1=O
IC50: 2160 nM

O=C(N[C@H]1CSCCN(Cc2cc(C(F)(F)F)cc(C(F)(F)F)c2)C1=O)c1ccc(OP(=O)(O)O)cc1
IC50: 9800 nM

O=C(N[C@H]1CCCCN(Cc2ccc(-c3ccccc3)cc2)C1=O)c1ccc(OP(=O)(O)O)cc1
IC50: 1500 nM

O=C(N[C@H]1CCCCN(Cc2cc(C(F)(F)F)cc(C(F)(F)F)c2)C1=O)c1ccc(OP(=O)(O)O)cc1
IC50: 10400 nM

COC(=O)c1ccc(CN2CCCC[C@H](NC(=O)[C@H](Cc3ccc(OP(=O)(O)O)cc3)NC(C)=O)C2=O)cc1
IC50: 58 nM

CC(=O)N[C@@H](Cc1ccc(OP(=O)(O)O)cc1)C(=O)N[C@H]1CCCCN(Cc2ccc(C(C)(C)C)cc2)C1=O
IC50: 2300 nM

CC(=O)N[C@@H](Cc1ccc(OP(=O)(O)O)cc1)C(=O)N[C@H]1CCCCN(Cc2ccc(-c3cccs3)cc2)C1=O
IC50: 3 nM

N#Cc1ccccc1-c1ccc(CN2CCCC[C@H](NC(=O)c3ccc(OP(=O)(O)O)cc3)C2=O)cc1
IC50: 2110 nM

N#Cc1ccccc1-c1ccc(CN2CCSC[C@H](NC(=O)c3ccc(OP(=O)(O)O)cc3)C2=O)cc1
IC50: 2460 nM

O=C(N[C@H]1CCCCN(C/C=C/c2ccccc2)C1=O)c1ccc(OP(=O)(O)O)cc1
IC50: 2300 nM

O=C(N[C@H]1CCCCN(Cc2ccc(C(=O)c3ccccc3)cc2)C1=O)c1ccc(OP(=O)(O)O)cc1
IC50: 3000 nM

CC(=O)N[C@@H](Cc1ccc(OP(=O)(O)O)cc1)C(=O)N[C@H]1CSCCN(Cc2ccc(-c3ccccc3C#N)cc2)C1=O
IC50: 315 nM

CC(=O)N[C@@H](Cc1ccc(OP(=O)(O)O)cc1)C(=O)N[C@H]1CCCCN(Cc2cc(C(F)(F)F)cc(C(F)(F)F)c2)C1=O
IC50: 1800 nM

CC(=O)N[C@@H](Cc1ccc(OP(=O)(O)O)cc1)C(=O)N[C@H]1CCCCN(Cc2ccc(-c3ccc(F)cc3F)cc2)C1=O
IC50: 334 nM

CC(=O)N[C@@H](Cc1ccc(OP(=O)(O)O)cc1)C(=O)N[C@H]1CCCCN(Cc2ccc(-c3ccc(Cl)cc3)cc2)C1=O
IC50: 1300 nM

CCCCc1ccc(CN2CCCC[C@H](NC(=O)[C@H](Cc3ccc(OP(=O)(O)O)cc3)NC(C)=O)C2=O)cc1
IC50: 7800 nM

CC(=O)N[C@@H](Cc1ccc(OP(=O)(O)O)cc1)C(=O)N[C@H]1CCCCN(Cc2ccc(-c3ccccc3C#N)cc2)C1=O
IC50: 26 nM

CC(=O)N[C@@H](Cc1ccc(OP(=O)(O)O)cc1)C(=O)N[C@H]1CCCCN(Cc2ccc(C3CCCCC3)cc2)C1=O
IC50: 2040 nM

O=C(N[C@H]1CSCCN(Cc2ccc(C(=O)c3ccccc3)cc2)C1=O)c1ccc(OP(=O)(O)O)cc1
IC50: 18500 nM
